# According to patent US12441736B2, “KIF18A inhibitors” (AMGEN INC., priority 2018, dated 2025):
# Biological target: T1, Recombinant human KIF18A (1-467 His-tagged) protein (Homo sapiens, UniProt Q8NI77)
# T1 construct: Recombinant human KIF18A (1-467 His-tagged) protein; His; made in house
# Assay: KIF18A Enzyme Assay: microtubule-stimulated ATPase activity (ADP-Glo)
# Assay type: biochemical
# Conditions: 30 nM KIF18A, 30 μg/mL pig microtubules, 75 μM ATP, ADP-Glo luminescence
# How it was run: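 IC50 comes from a four-parameter logistic fit over a 22-point, 2-fold series, with ADP quantified by ADP-Glo luminescence. Reactions ran at room temperature: compound plus 30 nM KIF18A(1-467)-His for 15 min, then 75 μM ATP (Km) for 15 min. The buffer held pig microtubules at 30 μg/mL and 1 μM taxol.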
# T1 sequence (Q8NI77 1-467): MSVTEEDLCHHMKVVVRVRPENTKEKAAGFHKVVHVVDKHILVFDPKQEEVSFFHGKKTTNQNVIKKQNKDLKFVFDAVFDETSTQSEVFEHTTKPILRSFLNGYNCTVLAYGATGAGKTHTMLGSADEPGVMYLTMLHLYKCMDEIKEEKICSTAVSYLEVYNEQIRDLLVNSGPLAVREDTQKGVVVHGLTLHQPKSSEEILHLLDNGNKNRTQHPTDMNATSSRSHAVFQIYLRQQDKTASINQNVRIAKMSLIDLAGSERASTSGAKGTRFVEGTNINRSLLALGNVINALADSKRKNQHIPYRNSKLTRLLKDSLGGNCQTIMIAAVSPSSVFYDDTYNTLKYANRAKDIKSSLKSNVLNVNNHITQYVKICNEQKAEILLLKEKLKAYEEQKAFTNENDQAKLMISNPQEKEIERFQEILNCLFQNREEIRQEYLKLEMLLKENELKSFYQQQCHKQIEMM
# T1 sequence (P02550 whole entry partner): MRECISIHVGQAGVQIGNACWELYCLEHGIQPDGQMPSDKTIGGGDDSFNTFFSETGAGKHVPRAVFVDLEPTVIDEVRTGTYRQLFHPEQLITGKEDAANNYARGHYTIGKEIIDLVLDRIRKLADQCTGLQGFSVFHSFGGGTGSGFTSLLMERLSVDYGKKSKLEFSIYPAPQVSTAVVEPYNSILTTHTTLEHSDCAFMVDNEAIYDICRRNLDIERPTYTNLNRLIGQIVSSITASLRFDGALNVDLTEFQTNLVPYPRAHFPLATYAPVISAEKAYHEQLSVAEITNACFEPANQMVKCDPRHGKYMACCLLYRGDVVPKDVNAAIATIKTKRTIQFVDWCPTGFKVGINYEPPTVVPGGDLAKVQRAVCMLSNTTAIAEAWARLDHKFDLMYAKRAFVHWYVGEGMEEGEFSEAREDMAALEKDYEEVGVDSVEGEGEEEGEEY
# T1 sequence (P02554 whole entry partner): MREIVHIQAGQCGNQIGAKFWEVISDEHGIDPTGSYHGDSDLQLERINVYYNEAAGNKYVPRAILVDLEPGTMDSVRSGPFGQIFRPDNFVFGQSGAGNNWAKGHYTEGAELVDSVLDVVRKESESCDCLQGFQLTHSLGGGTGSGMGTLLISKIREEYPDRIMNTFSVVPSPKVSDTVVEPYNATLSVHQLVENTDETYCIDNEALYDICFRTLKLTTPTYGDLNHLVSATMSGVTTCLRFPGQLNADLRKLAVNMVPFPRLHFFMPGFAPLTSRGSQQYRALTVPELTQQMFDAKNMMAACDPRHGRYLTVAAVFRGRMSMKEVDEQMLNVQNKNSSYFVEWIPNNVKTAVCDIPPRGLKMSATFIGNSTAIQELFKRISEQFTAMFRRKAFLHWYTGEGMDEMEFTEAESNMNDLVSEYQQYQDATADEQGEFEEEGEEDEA
row,Compound,IC50
1,"CC(C)(CO)Nc1ccc(C(=O)Nc2cccc(N3CC4(COC4)C3)n2)c(N2CCC3(CC2)CC3)n1 [Example 163, 2-(6-azaspiro[2.5]octan-6-yl)-6-((1-hydroxy-2-methyl-2-propanyl)amino)-N-(6-(2-oxa-6-azaspiro[3.3]heptan-6-yl)-2-pyridinyl)-3-pyridinecarboxamide]",159 nM
2,"CC(CO)(CO)Nc1ccc(C(=O)Nc2cccc(Br)n2)c(N2CCC3(CC2)CC3)n1 [Example 164, 2-(6-azaspiro[2.5]octan-6-yl)-N-(6-bromo-2-pyridinyl)-6-((1,3-dihydroxy-2-methyl-2-propanyl)amino)-3-pyridinecarboxamide]",2750 nM
3,"C[C@@H]1CN(c2cccc(NC(=O)c3ccc(N4C(=O)OCC4(C)C)nc3N3CCC4(CC3)CC4)n2)CCO1 [Example 165, 2-(6-azaspiro[2.5]octan-6-yl)-6-(4,4-dimethyl-2-oxo-1,3-oxazolidin-3-yl)-N-(6-((2R)-2-methyl-4-morpholinyl)-2-pyridinyl)-3-pyridinecarboxamide]",663 nM
4,"C[C@@H]1CN(c2cccc(NC(=O)c3ccc(C(C)(O)CO)nc3N3CCC4(CC3)CC4)n2)CCO1 (stereo partly drawn) [Example 166, 6-(1,2-dihydroxypropan-2-yl)-N-(6-((R)-2-methylmorpholino)pyridin-2-yl)-2-(6-azaspiro[2.5]octan-6-yl)nicotinamide]",62.5 nM
5,"C[C@@H]1CN(c2cccc(NC(=O)c3ccc([C@](C)(O)CO)nc3N3CCC4(CC3)CC4)n2)CCO1 [Example 167, 2-(6-azaspiro[2.5]octan-6-yl)-6-((2S)-1,2-dihydroxy-2-propanyl)-N-(6-((2R)-2-methyl-4-morpholinyl)-2-pyridinyl)-3-pyridinecarboxamide]",82.2 nM
6,"C[C@@H]1CN(c2cccc(NC(=O)c3ccc([C@@](C)(O)CO)nc3N3CCC4(CC3)CC4)n2)CCO1 [Example 168, 2-(6-azaspiro[2.5]octan-6-yl)-6-((2R)-1,2-dihydroxy-2-propanyl)-N-(6-((2R)-2-methyl-4-morpholinyl)-2-pyridinyl)-3-pyridinecarboxamide]",88.7 nM
7,"CC(C)(C)NS(=O)(=O)c1cccc(NC(=O)c2ccc(C(C)(O)CO)nc2N2CCC3(CC2)CC3)n1 (stereo not drawn) [Example 169, N-(6-(N-(tert-butyl)sulfamoyl)pyridin-2-yl)-6-(1,2-dihydroxypropan-2-yl)-2-(6-azaspiro[2.5]octan-6-yl)nicotinamide]",89.3 nM
8,"Cc1cc(NC(=O)c2ccc(NC(C)(C)CO)nc2N2CCC3(CC2)CC3)nc(NC(C)(C)CO)c1 [Example 170, 2-(6-azaspiro[2.5]octan-6-yl)-6-((1-hydroxy-2-methyl-2-propanyl)amino)-N-(6-((1-hydroxy-2-methyl-2-propanyl)amino)-4-methyl-2-pyridinyl)-3-pyridinecarboxamide]",157 nM
9,"CC(C)(C)NS(=O)(=O)c1cccc(NC(=O)c2ccc(F)nc2N2CCC3(CC2)CC3)n1 [Example 173, 2-(6-azaspiro[2.5]octan-6-yl)-6-fluoro-N-(6-((2-methyl-2-propanyl)sulfamoyl)-2-pyridinyl)-3-pyridinecarboxamide]",643 nM
10,"CC(C)(C)NS(=O)(=O)c1cccc(NC(=O)c2ccc(NC(C)(CO)CO)nc2N2CCC3(CC2)CC3)n1 [Example 174, 2-(6-azaspiro[2.5]octan-6-yl)-6-((1,3-dihydroxy-2-methyl-2-propanyl)amino)-N-(6-((2-methyl-2-propanyl)sulfamoyl)-2-pyridinyl)-3-pyridinecarboxamide]",62.2 nM
11,"C[C@@H]1COCCN1c1cccc(NC(=O)c2ccc(NC(C)(C)CO)nc2N2CCC3(CC2)CC3)n1 [Example 179, 2-(6-azaspiro[2.5]octan-6-yl)-6-((1-hydroxy-2-methyl-2-propanyl)amino)-N-(6-((3R)-3-methyl-4-morpholinyl)-2-pyridinyl)-3-pyridinecarboxamide]",98 nM
12,"CC1(C)OCC(c2ccc(C(=O)Nc3cccc(N4CCOCC4)n3)c(N3CCC4(CC3)CC4)n2)(C(F)(F)F)O1 (stereo not drawn) [Example 180, 6-(2,2-dimethyl-4-(trifluoromethyl)-1,3-dioxolan-4-yl)-N-(6-morpholinopyridin-2-yl)-2-(6-azaspiro[2.5]octan-6-yl)nicotinamide]",758 nM
13,"O=C(Nc1cccc(N2CCOCC2)n1)c1ccc(C(O)(CO)C(F)(F)F)nc1N1CCC2(CC1)CC2 (stereo not drawn) [Example 181, N-(6-morpholinopyridin-2-yl)-2-(6-azaspiro[2.5]octan-6-yl)-6-(1,1,1-trifluoro-2,3-dihydroxypropan-2-yl)nicotinamide]",69.9 nM

# Next, values leading:
row,IC50,Compound
1,79.5 nM,"C[C@@H]1CN(c2cccc(NC(=O)c3ccc(C(O)(CO)C(F)(F)F)nc3N3CCC4(CC3)CC4)n2)CCO1 (stereo partly drawn) [Example 182, N-(6-((R)-2-methylmorpholino)pyridin-2-yl)-2-(6-azaspiro[2.5]octan-6-yl)-6-(1,1,1-trifluoro-2,3-dihydroxypropan-2-yl)nicotinamide]"
2,205 nM,"C[C@H]1COCCN1c1cccc(NC(=O)c2ccc(NC(C)(C)CO)nc2N2CCC3(CC2)CC3)n1 [Example 183, 2-(6-azaspiro[2.5]octan-6-yl)-6-((1-hydroxy-2-methyl-2-propanyl)amino)-N-(6-((3S)-3-methyl-4-morpholinyl)-2-pyridinyl)-3-pyridinecarboxamide]"
3,62 nM,"Cc1cc(NC(=O)c2ccc(NC(C)(CO)CO)nc2N2CCC3(CC2)CC3)nc(N2CCOCC2)c1 [Example 184, 2-(6-azaspiro[2.5]octan-6-yl)-6-((1,3-dihydroxy-2-methyl-2-propanyl)amino)-N-(4-methyl-6-(4-morpholinyl)-2-pyridinyl)-3-pyridinecarboxamide]"
4,592 nM,"CC(C)(CO)Nc1ccc(C(=O)Nc2cccc(N3CCN(C(=O)OC(C)(C)C)CC3)n2)c(N2CCC3(CC2)CC3)n1 [Example 185, 2-methyl-2-propanyl 4-(6-(((2-(6-azaspiro[2.5]octan-6-yl)-6-((1-hydroxy-2-methyl-2-propanyl)amino)-3-pyridinyl)carbonyl)amino)-2-pyridinyl)-1-piperazinecarboxylate]"
5,365 nM,"CC(C)(CO)Nc1ccc(C(=O)Nc2cccc(N3CCOC(C(C)(C)O)C3)n2)c(N2CCC3(CC2)CC3)n1 (stereo not drawn) [Example 186, 6-((1-hydroxy-2-methylpropan-2-yl)amino)-N-(6-(2-(2-hydroxypropan-2-yl)morpholino)pyridin-2-yl)-2-(6-azaspiro[2.5]octan-6-yl)nicotinamide]"
6,2260 nM,"CC(C)N1CCN(c2cccc(NC(=O)c3ccc(NC(C)(C)CO)nc3N3CCC4(CC3)CC4)n2)CC1 [Example 188, 2-(6-azaspiro[2.5]octan-6-yl)-6-((1-hydroxy-2-methyl-2-propanyl)amino)-N-(6-(4-(2-propanyl)-1-piperazinyl)-2-pyridinyl)-3-pyridinecarboxamide]"
7,110 nM,"CC(C)(CO)Nc1ccc(C(=O)Nc2cccc(N3CCO[C@H](CO)C3)n2)c(N2CCC3(CC2)CC3)n1 [Example 189, 2-(6-azaspiro[2.5]octan-6-yl)-N-(6-((2S)-2-(hydroxymethyl)-4-morpholinyl)-2-pyridinyl)-6-((1-hydroxy-2-methyl-2-propanyl)amino)-3-pyridinecarboxamide]"
8,693 nM,"CC(C)(CO)Nc1ccc(C(=O)Nc2cccc(N3CCN(C4CC4)CC3)n2)c(N2CCC3(CC2)CC3)n1 [Example 190, 2-(6-azaspiro[2.5]octan-6-yl)-N-(6-(4-cyclopropyl-1-piperazinyl)-2-pyridinyl)-6-((1-hydroxy-2-methyl-2-propanyl)amino)-3-pyridinecarboxamide]"
